Reference: US11492594B2, “Method for producing engineered heart muscle (EHM)” (GEORG-AUGUST-UNIVERSITÄT GÖTTINGEN STIFTUNG ÖFFENTLICHEN …, priority 2013, dated 2022)

What was measured:
[1] = test system: human embryoid body (EB) cultures; test: Flow cytometry-based screen of media and supplements in 3D human embryoid body (EB) cultures; conditions: for cell death (sub-G1 fraction): compared to serum free medium without the factor or to other media, growth factors at above EC50 concentrations; for cardiomyocyte actinin expression (CM maturation): mean actinin fluorescence per cardiomyocyte
Procedure: EBs cultured in different medium conditions were made into a single cell suspension as described above. Cells were fixed in 70% ice cold ethanol under constant mixing. The cells were stained for sarcomeric actinin (Sigma) to label cardiomyocytes and DAPI to analyze nuclear DNA content and to exclude cell doublets. Cells were run on a LSRII Cytometer (BD). At least 10,000 live cells were analyzed. The following parameters were then analyzed, (1) cell death (percentage of cells in the sub-G1 fraction), (2) cardiomyocyte and non-myocyte percentage (Actinin-positive and negative cells, respectively) (3) Cardiomyocte maturation (mean actinin fluorescence), (4) cardiomyocyte and (5) non-myocyte size (based on sideward scatter area, SSC-A).

[2] = test system: hEHM (human engineered heart muscle); test: Spontaneous contraction frequency of hEHM by light microscopy; assay type: cell-based; conditions: n=6
Procedure: (§1) The inventors analyzed force of contraction and twitch kinetics (contraction time: time from 50% to maximal contraction; relaxation time: time from maximal contraction to 50% relaxation) under isometric conditions as described before (Zimmermann et al. Circ Res 90: 223-230 (2002), incorporated herein by reference). Contraction frequency was assessed by light microcopy (unstimulated spontaneous contractions) immediately after removing EHMs from the incubator.

[3] = test system: hEHM (human engineered heart muscle); test: Isometric force of contraction and twitch kinetics of hEHM; assay type: cell-based
Procedure: as §1

[4] = test system: hEHM (human engineered heart muscle); test: hEHM formation and contractile force with varied matrix, basal medium and supplements; assay type: cell-based; conditions: for hEHM formation and function by matrix component: contractile force at 2 mmol/L extracellular calcium; for force-generation of hEHM: 10 ng/ml added to serum-free medium, hES2
Procedure: The inventors constructed hEHMs using a modified EHM-engineering protocol (Zimmermann et al. Circ Res 90: 223-230 (2002), incorporated herein by reference). Briefly, EHMs (reconstitution volume: 450 μl) were prepared by pipetting a mixture containing freshly dispersed ESC-derivatives (1×10^4-15×10^6 cells in Iscove-Medium with 20% fetal calf serum, 1% non-essential amino acids, 2 mmol/l glutamine, 100 μmol/l β-mercaptoethanol, 100 U/ml penicillin, and […]), pH-neutralized collagen type I from rat tails (0.4 mg/EHM), Matrigel™ (10% v/v; Becton Dickenson or tebu), and concentrated serum-containing culture medium (2× DMEM, 20% horse serum, 4% chick embryo extract, 200 U/ml penicillin, and […] streptomycin) in circular molds (inner/outer diameter: 2/4 mm; height: 5 mm) (Table 1). hEHM condensed quickly within the casting molds and were transferred onto static stretch devices (110% of slack length) (Zimmermann et al. Nat Med 12: 452-458 (2006), incorporated herein by reference) on culture day 3. Medium was changed every other day. hEHM culture under stretch was performed for 7 days.
A protocol with reduced xenogenic components (Matrix protocol, Table 1) was established to enable pre-GMP hEHM. Cells were reconstituted in a mixture of pH-neutralized bovine collagen (Devros Medical, 0.4 mg/EHM), concentrated serum-containing culture medium (2× DMEM, 40% fetal calf serum, 200 U/ml penicillin, and […] streptomycin) and cultured in Iscove-Medium with 20% fetal calf serum, 1% non-essential amino acids, 2 mmol/l glutamine, 0.3 mmol/l ascorbic acid, 100 μmol/l β-mercaptoethanol, 100 U/ml penicillin, and 100 μg/ml streptomycin.
To generate fully defined, serum-free EHM cells were reconstituted in a mixture of pH-neutralized bovine collagen (Devros Medical, 0.4 mg/EHM), concentrated serum-free medium medium (2× DMEM, 8% B27, 200 U/ml penicillin, and […] streptomycin) and cultured in Iscove-Medium with full 4% B27, 1% non-essential amino acids, 2 mmol/l glutamine, 0.3 mmol/l ascorbic acid, 20 ng/ml IGF-1, 10 ng/ml FGF2, 10 ng/ml VEGF, 5 ng/ml TGFb1 (culture day 0-3 only), and 100 U/ml penicillin, and 100 μg/ml streptomycin (Serum-free protocol, Table 1). B27 supplement contains vitamins (Biotin, DL Alpha Tocopherol, Acetate DL Alpha-Tocopherol, Vitamin A), proteins and enzymes (BSA, fatty acid free Fraction V, Catalase, Human Recombinant Insulin, Human Transferrin, Superoxide Dismutase), and other cell-supporting components (Corticosterone, D-Galactose, Ethanolamine, Glutathione (reduced), L-Carnitine, Linoleic Acid, Linolenic Acid, Progesterone, Putrescine, Sodium Selenite, and T3 (triodo-I-thyronine). Where indicated full B27 (Invitrogen, A1486701) was compared to B27 without antioxidants (Invitrogen, #10889038) and B27 without insulin (Invitrogen, #0050129SA). B27 supplement was replaced by a custom-made supplement consisting of Albumin, Transferrin, Ethanolamine, Sodium selenite, L-Carnitine HCl, Hydrocortisone, Fatty acid supplement, and Triiodo-L-thyronine (Table 2).
as §1

[5] = compared to serum free medium without the factor

Neuregulin-1
cell death (sub-G1 fraction) [1]: caused substantial cell death

CC(C)NCC(O)c1ccc(O)c(O)c1 (stereo not shown) [isoprenaline, reference compound]
spontaneous beating frequency ([2]; incubation with isoprenaline, hEHM at 10 days, baseline 0.8±0.05 Hz at 37° C.): 1.2±0.1 Hz
relaxation time ([3]; 1 μmol/l isoprenaline at 0.4 mmol/l extracellular calcium, n=12): 113 ± 2.3 ms
increase in force of contraction ([3]; 1 μmol/l isoprenaline at sub-EC50 extracellular calcium (0.4 mmol/l), n=12): 47±12%

fibronectin
hEHM formation and function by matrix component [4]: did not yield additional benefit

FGF-2: peptide growth factor (Peprotech, AF-100-18B)
force-generation of hEHM [4]: able to enhance force-generation
non-myocyte growth [1, 5]: supported non-myocyte growth
cardiomyocyte cell size ([1]; sideward scatter area): increased cardiomyocyte cell size

IGF-1: peptide growth factor (Peprotech, AF-100-11)
cell death (sub-G1 fraction) [1]: appeared to protect from cell death

laminin
hEHM formation and function by matrix component [4]: did not yield additional benefit

TGFβ1: peptide growth factor (Peprotech, 100-21)
formation of functional EHM ([4]; addition to serum-free medium from day 0 to 3 (5 ng/ml)): essential
formation of functional EHM, prolonged treatment ([4]; prolonged treatment (culture day 0-10) versus day 0-3): did not yield an additional benefit
cardiomyocyte actinin expression (CM maturation) [1]: enhanced individual cardiomyocyte actinin expression

[Ca+2] [calcium]
maximal force and isoprenaline response of hEHM in RPMI with added calcium ([4]; RPMI plus 0.8 mM CaCl (final free calcium 1.242 mmol/L) versus RPMI (0.424 mmol/L)): lead to measurable maximal force and better responsiveness to isoprenalin
maximal twitch mean force ([3]; at 2.4 mmol/l calcium, n=17): 130±13 μN
EC50 ([3]; increasing extracellular calcium, n=17): 800 ± 40 µM

CC(C)Cn1c(=O)n(C)c(=O)c2[nH]cnc21 [IBMX, 3-isobutyl-1-methylxanthine]
spontaneous beating rate ([2]; IBMX 100 μmol/l in addition to isoprenaline): 1.6±0.1 Hz

VEGF
force-generation of hEHM [4]: able to enhance force-generation
cardiomyocyte actinin expression (CM maturation) [1]: enhanced individual cardiomyocyte actinin expression

B1: TGFβ2: peptide growth factor (protein, UniProt P61812 303-414, looked up)
Transforming growth factor …: ALDAAYCFRNVQDNCCLRPLYIDFKRDLGWKWIHEPKGYNANFCAGACPYLWSSDTQHSRVLSLYNTINPEASASPCCVSQDLEPLTILYYIGKTPKIEQLSNMIVKSCKCS
modifications: Transforming growth factor beta-2
overall effect in growth factor screen [1, 5]: had no beneficial effect

B2: PDGF-BB: peptide growth factor (protein, UniProt P01127 82-190, looked up)
Platelet-derived growth …: SLGSLTIAEPAMIAECKTRTEVFEISRRLIDRTNANFLVWPPCVEVQRCSGCCNNRNVQCRPTQVQLRPVQVRKIEIVRKKPIFKKATVTLEDHLACKCETVAAARPVT
cell death (sub-G1 fraction) [1]: caused substantial cell death

B3: CT-1: peptide growth factor (Cardiotrophin-1) (protein, UniProt Q16619 1-201, looked up)
Cardiotrophin-1: MSRREGSLEDPQTDSSVSLLPHLEAKIRQTHSLAHLLTKYAEQLLQEYVQLQGDPFGLPSFSPPRLPVAGLSAPAPSHAGLPVHERLRLDAAALAALPPLLDAVCRRQAELNPRAPRLLRRLEDAARQARALGAAVEALLAALGAANRGPRAEPPAATASAASATGVFPAKVLGLRVCGLYREWLSRTEGDLGQLLPGGSA
cell death (sub-G1 fraction) [1]: caused substantial cell death
